# Results from paper PMC5452050 (ACS Omega, 2017).
# Numbering of substitutions follows the chain as printed.
# Key:
# FLT3 (N841I) = biological target: T1, FLT3 (N841I) (Homo sapiens, UniProt P36888, N841I); test: Kd determination; format: binding
# T1 sequence (P36888 27-993 N841I): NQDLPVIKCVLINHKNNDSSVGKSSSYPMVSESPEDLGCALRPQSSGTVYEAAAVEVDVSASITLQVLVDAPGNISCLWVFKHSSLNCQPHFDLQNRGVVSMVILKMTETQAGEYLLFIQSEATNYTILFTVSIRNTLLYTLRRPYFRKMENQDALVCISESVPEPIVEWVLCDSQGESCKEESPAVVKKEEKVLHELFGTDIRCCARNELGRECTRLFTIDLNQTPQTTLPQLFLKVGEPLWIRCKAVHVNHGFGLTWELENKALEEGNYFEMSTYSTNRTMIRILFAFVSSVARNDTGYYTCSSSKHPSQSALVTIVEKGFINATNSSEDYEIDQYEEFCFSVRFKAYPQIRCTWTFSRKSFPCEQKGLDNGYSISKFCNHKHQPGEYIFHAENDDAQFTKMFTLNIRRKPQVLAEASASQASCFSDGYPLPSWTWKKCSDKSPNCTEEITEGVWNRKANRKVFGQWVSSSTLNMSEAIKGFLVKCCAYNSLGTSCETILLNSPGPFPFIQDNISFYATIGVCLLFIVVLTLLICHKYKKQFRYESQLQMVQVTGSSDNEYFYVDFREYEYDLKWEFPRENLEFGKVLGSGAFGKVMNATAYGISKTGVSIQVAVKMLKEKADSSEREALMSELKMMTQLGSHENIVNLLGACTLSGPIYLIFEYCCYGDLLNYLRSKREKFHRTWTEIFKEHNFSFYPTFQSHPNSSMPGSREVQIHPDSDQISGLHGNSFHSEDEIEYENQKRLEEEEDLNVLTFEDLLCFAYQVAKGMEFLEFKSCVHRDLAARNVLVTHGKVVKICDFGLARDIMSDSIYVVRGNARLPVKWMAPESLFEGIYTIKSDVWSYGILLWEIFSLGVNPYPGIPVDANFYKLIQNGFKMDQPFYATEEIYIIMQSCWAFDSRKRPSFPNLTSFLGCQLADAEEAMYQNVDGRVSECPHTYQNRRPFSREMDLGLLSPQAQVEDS
# FLT3 = biological target: T2, FLT3 (Homo sapiens, UniProt P36888); test: Kd determination; format: binding
# T2 sequence (P36888 27-993): T1 sequence (P36888 27-993 N841I) with I815N
# [1] = tested on: MOLM13^FLT3-ITD/D835Y cells; test: MOLM13 cell viability; format: cell-based; conditions: Homo sapiens, MOLM-13, 72 h, read-out: MOLM13^FLT3-ITD/D835Y IC50
# FLT3 (D835V) = biological target: T3, FLT3 (D835V) (Homo sapiens, UniProt P36888, D835V); test: Kd determination; format: binding
# T3 sequence (P36888 27-993 D835V): T1 sequence (P36888 27-993 N841I) with D809V, I815N
Kd (FLT3 (N841I)),Kd (FLT3),IC50 [1],Kd (FLT3 (D835V)),fold more potent against FLT3 than PDGFRB and JAK1 JH2 domain (Kd) (FLT3),SMILES
48 nM,61 nM,1150 nM,7.7 nM,,"c1cncc(-c2cccc(Nc3nccc(NC4CCCCC4)n3)c2)c1 [Compound 1, N^4-Cyclohexyl-N^2-(3-(pyridin-3-yl)phenyl)pyrimidine-2,4-diamine]"
11 nM,3.6 nM,82 nM,0.8 nM,approximately 8 fold,"CC(C)Nc1ccnc(Nc2cccc(-c3cccnc3)c2)n1 [Compound 5e, N^4-Isopropyl-N^2-(3-(pyridin-3-yl)phenyl)pyrimidine-2,4-diamine]"
> 10000 nM,> 10000 nM,4260 nM,> 10000 nM,,"CC(C)Nc1ccnc(Nc2ccccc2-c2ccccc2)n1 [Compound 6a, N^2-([1,1′-Biphenyl]-2-yl)-N^4-isopropylpyrimidine-2,4-diamine]"
